Data from PMC11203266, “Continuous evolution of compact protein degradation tags regulated by selective molecular glues” (Science (New York, N.Y.), 2024).
“Also recorded” adds a separate entry of the source.

What was measured:
[1] = system: HEK293T cells; assay: Global quantitative proteomics, HEK293T; assay type: cell-based, human; settings: 1 µM; for proteins downregulated (in words): 5 hours
Method: (§1) Cells were lysed by addition of lysis buffer (8 M Urea, 50 mM NaCl, 50 mM 4-(2-hydroxyethyl)-1-piperazineethanesulfonic acid (EPPS) pH 8.5, Protease and Phosphatase inhibitors) and homogenization by bead beating (BioSpec) for three repeats of 30 seconds at 2400. Bradford assay was used to determine the final protein concentration in the clarified cell lysate. 50 μg of protein for each sample was reduced, alkylated and precipitated using methanol/chloroform as previously described ([32]) and the resulting washed precipitated protein was allowed to air dry. Precipitated protein was resuspended in 4 M Urea, 50 mM HEPES pH 7.4, followed by dilution to <1 M urea with the addition of 200 mM EPPS, pH 8. Proteins were digested with LysC (1:50; enzyme:protein) and trypsin (1:50; enzyme:protein) overnight at 37 °C. Sample digests were acidified with formic acid to a pH of 2-3 prior to desalting using C18 solid phase extraction plates (SOLA, Thermo Fisher Scientific). Desalted peptides were dried in a vacuum centrifuge and reconstituted in 0.1% formic acid for LC-MS analysis.
(§2) Data were collected using a TimsTOF Pro2 (Bruker Daltonics, Bremen, Germany) coupled to a nanoElute LC pump (Bruker Daltonics, Bremen, Germany) via a CaptiveSpray nano-electrospray source. Peptides were separated on a reversed-phase C18 column (25 cm x 75 μm ID, […], IonOpticks, Australia) containing an integrated captive spray emitter. Peptides were separated using a 50 min gradient of 2 – 30% buffer B (acetonitrile in 0.1% formic acid) with a flow rate of 250 nL/min and column temperature maintained at 50 °C.
(§3) DDA was performed in Parallel Accumulation-Serial Fragmentation (PASEF) mode to determine effective ion mobility windows for downstream diaPASEF data collection (Meier et al., 2020). The ddaPASEF parameters included: 100% duty cycle using accumulation and ramp times of 50 ms each, 1 TIMS-MS scan and 10 PASEF ramps per acquisition cycle. The TIMS-MS survey scan was acquired between 100–1700 m/z and 1/k0 of 0.7–1.3 V.s/cm^2. Precursors with 1–5 charges were selected and those that reached an intensity threshold of 20,000 arbitrary units were actively excluded for 0.4 min. The quadrupole isolation width was set to 2 m/z for m/z <700 and 3 m/z for m/z >800, with the m/z between 700–800 m/z being interpolated linearly. The TIMS elution voltages were calibrated linearly with three points (Agilent ESI-L Tuning Mix Ions; 622, 922, 1,222 m/z) to determine the reduced ion mobility coefficients (1/K0). To perform diaPASEF, the precursor distribution in the DDA m/z-ion mobility plane was used to design an acquisition scheme for DIA data collection which included two windows in each 50 ms diaPASEF scan. Data was acquired using sixteen of these 25 Da precursor double window scans (creating 32 windows) which covered the diagonal scan line for doubly and triply charged precursors, with singly charged precursors able to be excluded by their position in the m/z-ion mobility plane. These precursor isolation windows were defined between 400–1200 m/z and 1/k0 of 0.7–1.3 V.s/cm^2.
(§4) The diaPASEF raw file processing and controlling peptide and protein level false discovery rates, assembling proteins from peptides, and protein quantification from peptides was performed using either targeted, cell line specific spectral libraries generated by searching offline fractionated DDApasef data against a Swissprot human or mouse database (January 2021) or using library free analysis in DIA-NN 1.8 ([85]). Library free mode performs an in-silico digestion of a given protein sequence database alongside deep learning-based predictions to extract the DIA precursor data into a collection of MS2 spectra. The search results are then used to generate a spectral library which is then employed for the targeted analysis of the DIA data searched against a Swissprot human or mouse database (January 2021). […]

[2] = system: Ba/F3 cells; assay: Global quantitative proteomics, Ba/F3; assay type: cell-based, mouse; settings: 1 µM; for changes to protein expression (in words): pomalidomide 5 hrs, PT-179 5 and 24 hrs
Method: as §1, §2, §3
The diaPASEF raw file processing and controlling peptide and protein level false discovery rates, assembling proteins from peptides, and protein quantification from peptides was performed using either targeted, cell line specific spectral libraries generated by searching offline fractionated DDApasef data against a Swissprot human or mouse database (January 2021) or using library free analysis in DIA-NN 1.8 ([85]). Library free mode performs an in-silico digestion of a given protein sequence database alongside deep learning-based predictions to extract the DIA precursor data into a collection of MS2 spectra. The search results are then used to generate a spectral library which is then employed for the targeted analysis of the DIA data searched against a Swissprot human or mouse database (January 2021).

[3] = system: MOLT4 cells; assay: Global quantitative proteomics, MOLT4; assay type: cell-based, human; settings: 1 µM; for proteins downregulated (in words): 5 hours, threshold ≥ 2-fold at p ≤ 0.0001
Method: as §1, §2, §3, §4

O=C1CCC(N2C(=O)c3ccc(N4CCOCC4)cc3C2=O)C(=O)N1 (centres unmarked) [PT-179]
proteins downregulated (in words) [1]: did not downregulate any detected proteins | logFC EIF5A (P63241) ([1]; vs DMSO, 5 hr, HEK293T): 1.52E-01 | logFC GAL (P22466) ([1]; vs DMSO, 5 hr, HEK293T): 8.26E-01 | logFC ITPKC (Q96DU7) ([1]; vs DMSO, 5 hr, HEK293T): 6.63E-01 | logFC RBM23 (Q86U06) ([1]; vs DMSO, 5 hr, HEK293T): 2.25E-01 | logFC ROR1 (Q01973) ([1]; vs DMSO, 5 hr, HEK293T): 8.84E-01 | changes to protein expression (in words) [2]: do not degrade proteins; also recorded: no significant changes to protein expression | logFC Bak1 (O08734) ([2]; vs DMSO, 5 hr, Ba/F3): -1.95E-01 | logFC Hspa1l (P16627) ([2]; vs DMSO, 5 hr, Ba/F3): 3.76E-01 | logFC Polr2l (P62876) ([2]; vs DMSO, 5 hr, Ba/F3): 5.32E-01 | logFC Prkd1 (Q62101) ([2]; vs DMSO, 5 hr, Ba/F3): 5.39E-01 | logFC Rpa2 (Q62193) ([2]; vs DMSO, 5 hr, Ba/F3): 1.32E-01 | logFC Pigo (Q9JJI6) ([2]; vs DMSO, 24 hr, Ba/F3): -3.94E-01 | logFC Ppib (P24369) ([2]; vs DMSO, 24 hr, Ba/F3): 9.71E-02 | logFC Prpf38a (Q4FK66) ([2]; vs DMSO, 24 hr, Ba/F3): -1.96E-01 | logFC Ube2v1 (Q9CZY3) ([2]; vs DMSO, 24 hr, Ba/F3): 5.05E-01 | logFC Uchl4 (P58321) ([2]; vs DMSO, 24 hr, Ba/F3): 1.38E-01 | proteins downregulated (in words) [3]: did not significantly downregulate any detected proteins | logFC ACSL1 (P33121) ([3]; vs DMSO, 5 hr, MOLT4): -1.03E+00 | logFC APOBEC3C (Q9NRW3) ([3]; vs DMSO, 5 hr, MOLT4): -8.07E-01 | logFC ARAP2 (Q8WZ64) ([3]; vs DMSO, 5 hr, MOLT4): -9.22E-01 | logFC NXT1 (Q9UKK6) ([3]; vs DMSO, 5 hr, MOLT4): -8.48E-01 | logFC SNX11 (Q9Y5W9) ([3]; vs DMSO, 5 hr, MOLT4): -9.02E-01

Nc1cccc2c1C(=O)N(C1CCC(=O)NC1=O)C2=O (centres unmarked) [pomalidomide, reference compound]
proteins downregulated (in words) [1]: induced degradation of ZFP91 | logFC C3 (P01024) ([1]; vs DMSO, 5 hr, HEK293T): 7.85E-01 | logFC DTWD1 (Q8N5C7) ([1]; vs DMSO, 5 hr, HEK293T): -1.29E+00 | logFC EIF5A (P63241) ([1]; vs DMSO, 5 hr, HEK293T): 1.83E-01 | logFC PKM (P14618) ([1]; vs DMSO, 5 hr, HEK293T): 1.32E-01 | logFC ZFP91 (Q96JP5) ([1]; vs DMSO, 5 hr, HEK293T): -2.05E+00 | changes to protein expression (in words) [2]: do not degrade proteins | logFC Bola1 (Q9D8S9) ([2]; vs DMSO, 5 hr, Ba/F3): -2.16E-01 | logFC Dusp19 (Q8K4T5) ([2]; vs DMSO, 5 hr, Ba/F3): -7.00E-01 | logFC Inpp5k (Q8C5L6) ([2]; vs DMSO, 5 hr, Ba/F3): -9.47E-01 | logFC Llph (Q9D945) ([2]; vs DMSO, 5 hr, Ba/F3): 2.10E-01 | logFC Med8 (Q9D7W5) ([2]; vs DMSO, 5 hr, Ba/F3): -3.40E-01 | proteins downregulated (in words) [3]: significant downregulation of the previously identified neosubstrates IKZF1 ([9]) and ZFP91 | logFC DYNLT1 (P63172) ([3]; vs DMSO, 5 hr, MOLT4): -9.35E-01 | logFC IKZF1 (Q13422) ([3]; vs DMSO, 5 hr, MOLT4): -2.37E+00 | logFC IKZF3 (Q9UKT9) ([3]; vs DMSO, 5 hr, MOLT4): -9.56E-01 | logFC RAB28 (P51157) ([3]; vs DMSO, 5 hr, MOLT4): -1.66E+00 | logFC ZFP91 (Q96JP5) ([3]; vs DMSO, 5 hr, MOLT4): -1.83E+00
